According to paper PMC3967794 (Journal of medicinal chemistry, 2014):

Legend:
[1] = target: T1, human platelet 12-lipoxygenase (12-LOX) (Homo sapiens, UniProt P18054); assay: Lipoxygenase UV–vis cuvette-based assay, 12-LOX; assay type: biochemical
T1 sequence (P18054 1-663): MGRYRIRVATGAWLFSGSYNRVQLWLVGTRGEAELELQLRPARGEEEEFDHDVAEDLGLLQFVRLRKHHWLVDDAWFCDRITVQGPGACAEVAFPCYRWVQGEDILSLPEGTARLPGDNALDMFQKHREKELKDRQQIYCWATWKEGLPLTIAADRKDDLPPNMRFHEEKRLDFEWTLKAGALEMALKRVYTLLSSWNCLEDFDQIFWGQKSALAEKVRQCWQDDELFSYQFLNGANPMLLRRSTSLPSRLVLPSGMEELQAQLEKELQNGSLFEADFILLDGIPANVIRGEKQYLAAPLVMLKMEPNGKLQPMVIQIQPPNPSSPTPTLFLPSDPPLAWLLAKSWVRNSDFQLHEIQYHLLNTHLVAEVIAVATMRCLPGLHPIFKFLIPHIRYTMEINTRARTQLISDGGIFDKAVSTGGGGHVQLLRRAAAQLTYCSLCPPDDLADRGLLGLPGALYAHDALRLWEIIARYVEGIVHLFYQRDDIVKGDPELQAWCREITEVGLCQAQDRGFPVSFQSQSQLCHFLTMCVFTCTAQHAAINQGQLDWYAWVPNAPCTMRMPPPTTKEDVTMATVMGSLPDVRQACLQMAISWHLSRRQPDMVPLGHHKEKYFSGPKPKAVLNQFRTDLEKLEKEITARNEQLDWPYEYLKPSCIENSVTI

[2] = pH 7.4, 48 h
12-LOX = target: T2, 12-LOX (Homo sapiens, UniProt P18054); assay: Steady-state inhibition kinetics; assay type: biochemical
T2 sequence (P18054 1-663): T1 sequence (P18054 1-663)

[3] = in the presence of NADPH
in vivo = conditions: male, CD1, mouse, po, 30 mg/kg

Row | SMILES | 12-LOX inhibitory activity (in words) [1] | PBS buffer (pH 7.4) solubility (PBS buffer) [µg/mL] | further results
1 | Nc1ccccc1CNc1ccc(S(=O)(=O)Nc2nccs2)cc1 [Compound 13] | negated all 12-LOX inhibitory activity |  | 
2 | O=S(=O)(Nc1nccs1)c1ccc(NCc2ccccc2O)cc1 [Compound 9] | complete loss of activity |  | 
3 | COc1cccc(CNc2ccc(S(=O)(=O)Nc3nc4ccccc4o3)cc2)c1O [Compound 36] |  | >60 | PBS buffer (pH 7.4) stability at 48 h [2]: 100%; mode of inhibition (12-LOX): mixed inhibitors; microsomal stability T1/2 (rat) [3]: >30 (rat) min
4 | COc1cccc(CNc2ccc(S(=O)(=O)Nc3nc4ccccc4s3)cc2)c1O [Compound 35, N-(Benzo[d]thiazol-2-yl)-4-((2-hydroxy-3-methoxybenzyl)-amino)benzenesulfonamide] |  | <5 | AUC(0-inf) (in vivo): 38 µM·h; concentration at which calcium mobilization is reduced significantly (human platelets): 250 nM
5 | O=S(=O)(Nc1nccs1)c1ccc(NCc2ccccc2)cc1 [Compound 8] | complete loss of activity |  | 
